Test results taken from US11965039B2, “Compstatin analogues and their medical uses” (priority 2018, dated 2024).
Positions of bridges follow the written chain, without caps; N, C: chain ends. Non-standard residues stand in square brackets, D forms with d. Residues, ends and D or L forms follow the SMILES beside them. *: point of attachment. Trp(1-Me) = Cn1cc(C[C@H](N)C(=O)O)c2ccccc21; C16 diacid = O=C(O)CCCCCCCCCCCCCCC(=O)*; Sar = CNCC(=O)O

Columns and labels:
[1] = system: classical complement pathway; assay: In vitro haemolysis assay (inhibition of classical complement pathway); format: cell-based, human; conditions: human serum, sensitized sheep red blood cells; Table 3, given as upper bounds; read-out: IC50, inhibition of hemolysis
Outline: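 Compound dilutions preincubated 15 min at room temperature with diluted human serum (titrated per batch for 70-90% maximal haemolysis), then antibody-sensitized sheep RBC (10^7/well) added for 30 min at 37 °C in Tris/casein buffer, pH 7.4. Stopped with EDTA; haemolysis read at 405 nm; IC50 by 4PL fit.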

[2] = Solubility test at 10 mg/mL (visual inspection and light scattering); format: physicochemical; conditions: for Solubility, Condition 1: Acetate pH 4; for Solubility, Condition 2: Acetate pH 5; for Solubility, Condition 3: Phosphate pH 6; for Solubility, Condition 4: Phosphate pH 7; for Solubility, Condition 5: Phosphate pH 7.5
Method: The solubility of compounds was assessed by measuring light scattering over a pH interval from pH 4 to pH 7.5.
Compounds were dissolved in a stock solution of 20 mg/mL in H2O at pH 2.5 or pH 10. These stock solutions were diluted 1:1 with 200 mM buffered solution to reach a final solution of 10 mg/mL compound in 100 mM buffer. The 5 investigated conditions were (1) acetate pH 4.0, (2) acetate pH 5.0, (3) phosphate pH 6.0, (4) phosphate pH 7 and (5) phosphate pH 7.5.
Visual inspection included manually checking the 96 well plate for wells that are clear or non-clear. In addition to this a picture of the 96 well plate is taken.
Absorbance was measured at four wavelengths: 280 nm, 325 nm, 340 nm and 360 nm in an UV transparent 96 well microplate in a SpectraMax 190 microplate reader (Molecular Devices).
The criteria for this was a combination of visual inspection and light scattering not exceeding 0.1 AU, where values below 0.1 AU are good in visually clear samples.

Row | Structure (SMILES) | IC50 [1] | Solubility, Condition 1 [2] | Solubility, Condition 2 [2] | Solubility, Condition 3 [2] | Solubility, Condition 4 [2] | Solubility, Condition 5 [2]
1 | CC[C@H](C)[C@H](NC(=O)[C@H](C)NC(=O)[C@H](CO)NC(=O)CNC(=O)[C@H](CCC(=O)O)NC(C)=O)C(=O)N[C@H]1CSSC[C@@H](C(=O)N(C)CC(=O)N[C@@H](CCC(=O)O)C(N)=O)NC(=O)[C@H](CCCNC(=N)N)NC(=O)[C@H](Cc2c[nH]cn2)NC(=O)[C@H](CCC(=O)O)NC(=O)CNC(=O)[C@H](Cc2c[nH]c3ccccc23)NC(=O)[C@H](CC(=O)O)NC(=O)[C@H](CCC(N)=O)NC(=O)[C@H](Cc2cn(C)c3ccccc23)NC(=O)[C@H]([C@@H](C)CC)NC1=O [Compound 49] (Ac-EGSAICI[Trp(1-Me)]QDWGEHRC[Sar]E-NH2; disulfide 6-16) | < 0.1 µM | − (“−” denotes lack of solubility at the given condition, as UV absorbance at 340 nm exceeds 0.1 AU and/or it is visibly turbid or contains particles) | − (“−” denotes lack of solubility at the given condition, as UV absorbance at 340 nm exceeds 0.1 AU and/or it is visibly turbid or contains particles) | + (“+” denotes solubility at the given condition, as determined by UV absorbance being less than 0.1 AU at 340 nm and the sample being clear when manually inspected) | + (“+” denotes solubility at the given condition, as determined by UV absorbance being less than 0.1 AU at 340 nm and the sample being clear when manually inspected) | + (“+” denotes solubility at the given condition, as determined by UV absorbance being less than 0.1 AU at 340 nm and the sample being clear when manually inspected)
2 | CC[C@H](C)[C@@H]1NC(=O)[C@@H](NC(=O)[C@@H](NC(=O)[C@H](CCC(=O)O)NC(=O)CNC(=O)[C@H](CCC(=O)O)NC(C)=O)[C@@H](C)CC)CSSC[C@@H](C(=O)N[C@H](C(N)=O)[C@@H](C)O)NC(=O)[C@H](CCCNC(=N)N)NC(=O)[C@H](Cc2c[nH]cn2)NC(=O)[C@H](CCC(=O)O)NC(=O)CNC(=O)[C@H](Cc2c[nH]c3ccccc23)NC(=O)[C@H](CC(=O)O)NC(=O)[C@H](CCC(N)=O)NC(=O)[C@H](Cc2c[nH]c3ccccc23)NC1=O [Compound 30] (Ac-EGEICIWQDWGEHRCT-NH2; disulfide 5-15) | < 0.1 µM | − (“−” denotes lack of solubility at the given condition, as UV absorbance at 340 nm exceeds 0.1 AU and/or it is visibly turbid or contains particles) | − (“−” denotes lack of solubility at the given condition, as UV absorbance at 340 nm exceeds 0.1 AU and/or it is visibly turbid or contains particles) |  | + (“+” denotes solubility at the given condition, as determined by UV absorbance being less than 0.1 AU at 340 nm and the sample being clear when manually inspected) | + (“+” denotes solubility at the given condition, as determined by UV absorbance being less than 0.1 AU at 340 nm and the sample being clear when manually inspected)
3 | CC[C@H](C)[C@H](NC(=O)[C@H](C)NC(=O)[C@H](CO)NC(=O)CNC(=O)[C@H](CCC(=O)O)NC(C)=O)C(=O)N[C@H]1CSSC[C@@H](C(=O)N[C@H](C(=O)N[C@@H](CCC(=O)O)C(N)=O)[C@@H](C)O)NC(=O)[C@H](CCCNC(=N)N)NC(=O)[C@H](Cc2c[nH]cn2)NC(=O)[C@H](CCC(=O)O)NC(=O)CNC(=O)[C@H](Cc2c[nH]c3ccccc23)NC(=O)[C@H](CC(=O)O)NC(=O)[C@H](CCC(N)=O)NC(=O)[C@H](Cc2c[nH]c3ccccc23)NC(=O)[C@H]([C@@H](C)CC)NC1=O [Compound 55] (Ac-EGSAICIWQDWGEHRCTE-NH2; disulfide 6-16) | < 0.25 µM | − (“−” denotes lack of solubility at the given condition, as UV absorbance at 340 nm exceeds 0.1 AU and/or it is visibly turbid or contains particles) | − (“−” denotes lack of solubility at the given condition, as UV absorbance at 340 nm exceeds 0.1 AU and/or it is visibly turbid or contains particles) | + (“+” denotes solubility at the given condition, as determined by UV absorbance being less than 0.1 AU at 340 nm and the sample being clear when manually inspected) | + (“+” denotes solubility at the given condition, as determined by UV absorbance being less than 0.1 AU at 340 nm and the sample being clear when manually inspected) | + (“+” denotes solubility at the given condition, as determined by UV absorbance being less than 0.1 AU at 340 nm and the sample being clear when manually inspected)
4 | CC[C@H](C)[C@H](NC(=O)[C@H](C)NC(=O)[C@H](CO)NC(=O)[C@H](CO)NC(=O)[C@H](CCC(=O)O)NC(C)=O)C(=O)N[C@H]1CSSC[C@@H](C(=O)N[C@H](C(=O)NCC(=O)N[C@@H](C)C(=O)N[C@@H](CCC(=O)O)C(=O)N[C@@H](CO)C(N)=O)[C@@H](C)O)NC(=O)[C@H](CCCNC(=N)N)NC(=O)[C@H](Cc2c[nH]cn2)NC(=O)[C@H](CCC(=O)O)NC(=O)CNC(=O)[C@H](Cc2c[nH]c3ccccc23)NC(=O)[C@H](CC(=O)O)NC(=O)[C@H](CCC(N)=O)NC(=O)[C@H](Cc2c[nH]c3ccccc23)NC(=O)[C@H]([C@@H](C)CC)NC1=O [Compound 14] (Ac-ESSAICIWQDWGEHRCTGAES-NH2; disulfide 6-16) | < 0.1 µM | + (“+” denotes solubility at the given condition, as determined by UV absorbance being less than 0.1 AU at 340 nm and the sample being clear when manually inspected) | − (“−” denotes lack of solubility at the given condition, as UV absorbance at 340 nm exceeds 0.1 AU and/or it is visibly turbid or contains particles) | − (“−” denotes lack of solubility at the given condition, as UV absorbance at 340 nm exceeds 0.1 AU and/or it is visibly turbid or contains particles) | + (“+” denotes solubility at the given condition, as determined by UV absorbance being less than 0.1 AU at 340 nm and the sample being clear when manually inspected) | + (“+” denotes solubility at the given condition, as determined by UV absorbance being less than 0.1 AU at 340 nm and the sample being clear when manually inspected)
5 | CC[C@H](C)[C@@H]1NC(=O)[C@@H](NC(=O)[C@H](Cc2ccccc2)NC(=O)[C@H](C)NC(=O)[C@H](CO)NC(=O)CNC(=O)[C@H](CCC(=O)O)NC(C)=O)CSSC[C@@H](C(=O)N(C)CC(=O)N[C@@H](CCC(=O)O)C(N)=O)NC(=O)[C@H](CCCNC(=N)N)NC(=O)[C@H](Cc2c[nH]cn2)NC(=O)[C@H](CCC(=O)O)NC(=O)CNC(=O)[C@H](Cc2c[nH]c3ccccc23)NC(=O)[C@H](CC(=O)O)NC(=O)[C@H](CCC(N)=O)NC(=O)[C@H](Cc2cn(C)c3ccccc23)NC1=O [Compound 53] (Ac-EGSAFCI[Trp(1-Me)]QDWGEHRC[Sar]E-NH2; disulfide 6-16) | < 0.1 µM | − (“−” denotes lack of solubility at the given condition, as UV absorbance at 340 nm exceeds 0.1 AU and/or it is visibly turbid or contains particles) | − (“−” denotes lack of solubility at the given condition, as UV absorbance at 340 nm exceeds 0.1 AU and/or it is visibly turbid or contains particles) | + (“+” denotes solubility at the given condition, as determined by UV absorbance being less than 0.1 AU at 340 nm and the sample being clear when manually inspected) | + (“+” denotes solubility at the given condition, as determined by UV absorbance being less than 0.1 AU at 340 nm and the sample being clear when manually inspected) | + (“+” denotes solubility at the given condition, as determined by UV absorbance being less than 0.1 AU at 340 nm and the sample being clear when manually inspected)
6 | CC[C@H](C)[C@@H]1NC(=O)[C@@H](NC(=O)[C@H](Cc2ccc(O)cc2)NC(=O)[C@H](CCC(=O)O)NC(=O)[C@H](CO)NC(=O)CNC(=O)[C@H](CCC(=O)O)NC(=O)CCCCCCCCCCCCCCC(=O)O)CSSC[C@@H](C(=O)N(C)CC(=O)N[C@@H](CCC(=O)O)C(N)=O)NC(=O)[C@H](CCCNC(=N)N)NC(=O)[C@H](Cc2c[nH]cn2)NC(=O)[C@H](CCC(=O)O)NC(=O)CNC(=O)[C@H](Cc2c[nH]c3ccccc23)NC(=O)[C@H](CC(=O)O)NC(=O)[C@H](CCC(N)=O)NC(=O)[C@H](Cc2cn(C)c3ccccc23)NC1=O [Compound 107] ({C16 diacid}-EGSEYCI[Trp(1-Me)]QDWGEHRC[Sar]E-NH2; disulfide 6-16) | < 0.1 µM | − (“−” denotes lack of solubility at the given condition, as UV absorbance at 340 nm exceeds 0.1 AU and/or it is visibly turbid or contains particles) | − (“−” denotes lack of solubility at the given condition, as UV absorbance at 340 nm exceeds 0.1 AU and/or it is visibly turbid or contains particles) | + (“+” denotes solubility at the given condition, as determined by UV absorbance being less than 0.1 AU at 340 nm and the sample being clear when manually inspected) | + (“+” denotes solubility at the given condition, as determined by UV absorbance being less than 0.1 AU at 340 nm and the sample being clear when manually inspected) | + (“+” denotes solubility at the given condition, as determined by UV absorbance being less than 0.1 AU at 340 nm and the sample being clear when manually inspected)
